Assay results taken from patent US20190263799A1, “1H-IMIDAZO[4,5-B]PYRIDINYL AND 2-OXO-2,3-DIHYDRO-1H-IMIDAZO[4,5-B]PYRIDINYL HETEROCYCLIC BET BROMODOMAIN INHIBITORS” (ZENITH EPIGENETICS LTD., priority 2015, published 2019).
Structures can show the parent of a compound that is named as a salt. Where two headings read alike, the source gives them in different places.

Assays:
BRD4(1) = biological target: T1, BRD4(1) (Homo sapiens, UniProt O60885); assay: Inhibition of tetra-acetylated histone H4 binding to individual BET bromodomains (AlphaScreen); details: His-tagged BRD4(1) 20 nM, biotinylated tetra-acetylated histone H4 peptide, 30 min incubation; read-out: FRET activity BRD4(1)
T1 construct: N-terminally His-tagged bromodomains (BRD4(1) at 20 nM and BRD4(2) at 100 nM); made in house; host or cells: E. coli BL21(DE3)
Experimental: Proteins were cloned and overexpressed with a N-terminal 6×His tag, then purified by nickel affinity followed by size exclusion chromatography. Briefly, E. coli BL21(DE3) cells were transformed with a recombinant expression vector encoding N-terminally Nickel affinity tagged bromodomains from Brd2, Brd3, Brd4. Cell cultures were incubated at 37° C. with shaking to the appropriate density and induced overnight with IPTG. The supernatant of lysed cells was loaded onto Ni-IDA column for purification. Eluted protein was pooled, concentrated and further purified by size exclusion chromatography. Fractions representing monomeric protein were pooled, concentrated, aliquoted, and frozen at −80° C. for use in subsequent experiments.
Binding of tetra-acetylated histone H4 peptide (Millipore) and BET bromodomains was confirmed by Amplified Luminescent Proximity Homogenous Assay (AlphaScreen). N-terminally His-tagged bromodomains (BRD4(1) at 20 nM and BRD4(2) at 100 nM) and biotinylated tetra-acetylated histone H4 (10-25 nM) were incubated in the presence of nickel chelate acceptor beads and streptavidin donor beads (PerkinAlmer, 6760000K) added to a final concentration of 2 μg/mL under green light in a white 96 well microtiter plate (Greiner). For inhibition assays, serially diluted compounds were added to the reaction mixtures in a 0.1% final concentrations of DMSO. Final buffer concentrations were 50 mM HEPES, 100 mM NaCl and 0.1% BSA buffer, pH 7.4 and optimized to 30 min incubation time. Assay plates were read at 570 nm on a Synergy H4 Plate Reader (Biotek). IC50 values were determined from a dose response curve.

cMYC = assay: Inhibition of cMYC expression in cancer cell lines (MV4-11, real-time PCR); assay type: cell-based; details: Homo sapiens, read-out: Myc activity
Experimental: MV4-11 cells (CRL-9591) were plated at a density of 2.5×10^4 cells per well in 96 well U-bottom plates and treated with increasing concentrations of test compound or DMSO (0.1%) in IMDM media containing 10% FBS and penicillin/streptomycin, and incubated for 3 h at 37° C. Triplicate wells were used for each concentration. Cells were pelleted by centrifugation and harvested using the mRNA Catcher PLUS kit according to manufacturer's instructions. The eluted mRNA isolated was then used in a one-step quantitative real-time PCR reaction, using components of the RNA UltraSense™ One-Step Kit (Life Technologies) together with Applied Biosystems TaqMan® primer-probes for cMYC and Cyclophilin. Real-time PCR plates were run on a ViiA™7 real time PCR machine (Applied Biosystems), data were analyzed, normalizing the Ct values for cMYC to an internal control, prior to determining the fold expression of each sample, relative to the control.

MV4-11 cells = assay: Inhibition of cell proliferation in cancer cell lines (MV4-11, CellTiter Aqueous One); assay type: cell-based; details: Homo sapiens, read-out: Proliferation activity
Experimental: MV4-11 cells (CRL-9591) were plated at a density of 5×10^4 cells per well in 96 well flat bottom plates and treated with increasing concentrations of test compound or DMSO (0.1%) in IMDM media containing 10% FBS and penicillin/streptomycin. Triplicate wells were used for each concentration and a well containing only media was used as a control. Plates were incubated at 37° C., 5% CO2 for 72 h before adding 20 μL of the CellTiter Aqueous One Solution (Promega) to each well and incubating at 37° C., 5% CO2 for an additional 3-4 h. The absorbance was read at 490 nm in a spectrophotometer and the percentage of cell titer relative to DMSO-treated cells was calculated after correcting for background by subtracting the blank well's signal. IC50 values were calculated using the GraphPad Prism software.

[1] = MV4-11 cells, 3 h incubation, cMYC mRNA

Row | IC50 (BRD4(1)) [µM] | IC50 (cMYC; [1]) [µM] | IC50 (MV4-11 cells; MV4-11 cells, 72 h incubation) [µM] | Structure (SMILES) | IC50 (cMYC; MV4-11, 3 h) [µM] | IC50 (MV4-11 cells; MV4-11, 72 h) [µM]
1 | ≤ 0.3 | 0.3 to 3 | 3 to 30 | C=CC(=O)N(C)c1cnc2nc(N3CC[C@@H](NC(C)=O)C3)n(Cc3ccccc3)c2c1 [Example 44, (R)—N-(2-(3-Acetamidopyrrolidin-1-yl)-1-benzyl-1H-imidazo[4,5-b]pyridin-6-yl)-N-methylacrylamide] |  | 
2 | 0.3 to 3 | 0.3 to 3 | 3 to 30 | CNC(=O)N(C)c1cnc2nc(N3CCCC3)n(Cc3ccccc3)c2c1 [Example 31, 1-(1-Benzyl-2-(pyrrolidin-1-yl)-1H-imidazo[4,5-b]pyridin-6-yl)-1,3-dimethylurea] |  | 
3 | ≤ 0.3 | 0.3 to 3 | 0.3 to 3 | C=CC(=O)N(C)c1cnc2nc(N3CC=CC3)n(Cc3ccccc3)c2c1 [Example 22, N-(1-Benzyl-2-(2,5-dihydro-1H-pyrrol-1-yl)-1H-imidazo[4,5-b]pyridin-6-yl)-N-methylacrylamide hydrochloride] |  | 
4 | ≤ 0.3 | 0.3 to 3 | 0.3 to 3 | C=CC(=O)N(C)c1cnc2nc(N3Cc4cnn(C)c4C3)n(Cc3ccccc3)c2c1 [Example 48, N-(1-Benzyl-2-(1-methylpyrrolo[3,4-c]pyrazol-5(1H,4H,6H)-yl)-1H-imidazo[4,5-b]pyridin-6-yl)-N-methylacrylamide] |  | 
5 | ≤ 0.3 | 0.3 to 3 | 0.3 to 3 | C=CC(=O)N(C)c1cnc2nc(NC)n(Cc3ccccc3)c2c1 [Example 21, N-(1-Benzyl-2-(methylamino)-1H-imidazo[4,5-b]pyridin-6-yl)-N-methylacrylamide] |  | 

Further lines, the compound ahead of its results:

Row | Structure (SMILES) | IC50 (BRD4(1)) [µM] | IC50 (cMYC; [1]) [µM] | IC50 (MV4-11 cells; MV4-11 cells, 72 h incubation) [µM] | IC50 (cMYC; MV4-11, 3 h) [µM] | IC50 (MV4-11 cells; MV4-11, 72 h) [µM]
6 | C=CC(=O)N(C)c1cnc2nc(N3CCOCC3)n(Cc3ccccc3)c2c1 [Example 16, N-(1-Benzyl-2-morpholino-1H-imidazo[4,5-b]pyridin-6-yl)-N-methylacrylamide] | ≤ 0.3 | 3 to 30 | 3 to 30 |  | 
7 | CC(C)OC(=O)N(C)c1cnc2nc(N3CCCC3)n(Cc3ccccc3)c2c1 [Example 37, Isopropyl (1-benzyl-2-(pyrrolidin-1-yl)-1H-imidazo[4,5-b]pyridin-6-yl)(methyl)carbamate] | 0.3 to 3 |  |  | 0.3 to 3 | 3 to 30
8 | CC(=O)N(C)c1cnc2c(c1)n(Cc1ccccc1)c(=O)n2C [Example 11, N-(1-Benzyl-3-methyl-2-oxo-2,3-dihydro-1H-imidazo[4,5-b]pyridin-6-yl)-N-methylacetamide] | ≤ 0.3 | 3 to 30 | 3 to 30 |  | 
9 | C=CC(=O)N(C)c1cnc2nc(N3CCC3)n(Cc3ccccc3)c2c1 [Example 17, N-(2-(Azetidin-1-yl)-1-benzyl-1H-imidazo[4,5-b]pyridin-6-yl)-N-methylacrylamide] | ≤ 0.3 |  |  | 0.3 to 3 | 0.3 to 3
10 | CCN(C(C)=O)c1cnc2nc(C)n(Cc3ccccc3)c2c1 [Example 6, N-(1-Benzyl-2-methyl-1H-imidazo[4,5-b]pyridin-6-yl)-N-ethylacetamide] | 0.3 to 3 |  |  | 3 to 30 | 
11 | C=CC(=O)N(CC)c1cnc2c(c1)n(Cc1ccccc1)c(=O)n2C [Example 14, N-(1-Benzyl-3-methyl-2-oxo-2,3-dihydro-1H-imidazo[4,5-b]pyridin-6-yl)-N-ethylacrylamide] | 0.3 to 3 |  |  |  | 
12 | CN(C(=O)CCCl)c1cnc2c(c1)n(Cc1ccccc1)c(=O)n2C [Example 10, N-(1-Benzyl-3-methyl-2-oxo-2,3-dihydro-1H-imidazo[4,5-b]pyridin-6-yl)-3-chloro-N-methylpropanamide] | 3 to 30 |  | 3 to 30 |  | 
13 | CCN(C(C)=O)c1cnc2c(c1)n(Cc1ccccc1)c(=O)n2C [Example 13, N-(1-Benzyl-3-methyl-2-oxo-2,3-dihydro-1H-imidazo[4,5-b]pyridin-6-yl)-N-ethylacetamide] | 0.3 to 3 |  |  |  | 
14 | C=CC(=O)N(CC)c1cnc2nc(C)n(Cc3ccccc3)c2c1 [Example 7, N-(1-Benzyl-2-methyl-1H-imidazo[4,5-b]pyridin-6-yl)-N-ethylacrylamide] | 0.3 to 3 |  |  |  | 
15 | CC(=O)Nc1cnc2nc(C)n(Cc3ccccc3)c2c1 [Example 1, N-(1-Benzyl-2-methyl-1H-imidazo[4,5-b]pyridin-6-yl)acetamide] | 3 to 30 |  |  |  | 
